Values quoted from earlier work in patent US10357461B2, “Physically dispersed, molecularly dissolved and/or chemically bound drug(s) in an empty, hard capsule shell composition” (priority 2005, dated 2019).
≈ marks a conversion by molar mass, not a printed value. Each block holds one compound with its values, some of them ahead of it.

Experiments:
[1] = people taking metformin

people taking the drug who face vitamin B12 deficiency [1]: ~30%
Compound: CN(C)C(=N)N=C(N)N [metformin]

water solubility (water at 25° C.): 1.8 mg/L (≈ 0.00491 mM)
Compound: C[C@]12CCC(=O)C=C1[C@@H]1C[C@@H]1[C@H]1[C@@H]3[C@@H]4C[C@@H]4[C@@]4(CCC(=O)O4)[C@@]3(C)CC[C@@H]12 [Drospirenone]

Compound: COc1cc2c(c(OC)c1OC)-c1ccc(OC)c(=O)cc1[C@@H](NC(C)=O)CC2 [Colchicine]
solubility in water (water): 7 mg/mL (≈ 17.5 mM)
